tested on: PC-3 cell proliferation; assay: Cell proliferation assay (Cyquant DNA assay); type: cell-based; details: Homo sapiens; PC-3 cells, 2-5 days incubation, vs DMSO (100%) and 10 μM Actinomycin D (0%); read-out: inhibitory activities against PC-3 cell proliferation (IC50 range)
Description: A panel of cancer cell lines is obtained from the DCTP Tumor Repository, National Cancer Institute (Frederick, Md.) or ATCC (Rockville, Md.). Cell cultures are maintained in Hyclone RPMI 1640 medium (Logan, Utah) supplemented with 10% fetal bovine serum and 20 mM HEPES buffer, final pH 7.2, at 37° C. with a 5% CO2 atmosphere. Cultures are maintained at sub-confluent densities.
For proliferation assays, cells are seeded with the appropriate medium into 96 well plates at 1,000-2,500 cells per well, depending on the cell line, and are incubated overnight. The following day, test compound, DMSO solution (negative control), or Actinomycin D (positive control) is added to the appropriate wells as 10× concentrated stocks prepared in phosphate buffered saline. The cell plates where then incubated for an additional 2-5 days, depending on the cell line, to allow proliferation to occur. To measure cell density, growth medium is removed from the adherent cell lines, and the plates stored at −80° C. Using these assay plates, relative amounts of DNA in each well is determined using the Cyquant DNA assay kit from […] (Eugene, Oreg.) following the manufacturer's directions. Results for each compound treatment are compared to DMSO vehicle control (100%) and 10 μM Actinomycin D treated cells (0%).

SMILES	IC50 [nM]
C/C(=N\O)c1cn(-c2ccc(C(N)=O)cc2Cl)c2ccccc12 [Compound 7, 4-(3-(1-hydroxyimino-ethyl)-indol-1-yl)-3-chloro-benzamide]	< 500
CC(=O)c1cn(-c2ccc(C(N)=O)cc2Cl)c2ccccc12 [Compound 6, 4-(3-Acetyl-indol-1-yl)-3-chloro-benzamide]	< 500

Other lines, results leading:

IC50 [nM]	SMILES
500 to 5000	COCCNc1ccc(-n2c3c(c4ccccc42)C(=O)CCC3)c(C(F)(F)F)c1 [Compound 10, 9-[4-(2-methoxy-ethylamino)-2-trifluoromethyl-phenyl]-1,2,3,9-tetrahydro-carbazol-4-one]
< 500	NC(=O)c1ccc(-n2c3c(c4ccccc42)C(=O)CCC3)c(Cl)c1 [Compound 2, 3-Chloro-4-(4-oxo-1,2,3,4-tetrahydro-carbazol-9-yl)benzamide]
500 to 5000	NC(=O)c1ccc(-n2c3c(c4ccccc42)C(=O)NCC3)c(Cl)c1 [Compound 22, 3-Chloro-4-(1-oxo-1,2,3,4-tetrahydro-pyrido[4,3-b]indol-5-yl)-benzamide]
500 to 5000	NC(=O)c1ccc(-n2c3c(c4ccccc42)/C(=N/O)CCC3)c(Br)c1 [Compound 4, 3-Bromo-4-(4-hydroxyimino-1,2,3,4-tetrahydro-carbazol-9-yl)benzamide]
< 500	NC(=O)Nc1ccc(-n2c3c(c4ccccc42)C(=O)CCC3)c(Cl)c1 [Compound 13, 1-(3-chloro-4-(4-oxo-3,4-dihydro-1H-carbazol-9(2H)-yl)phenyl)urea]
< 500	NC(=S)c1ccc(-n2c3c(c4ccccc42)C(=O)CCC3)c(Br)c1 [Compound 5, 3-Bromo-4-(4-oxo-1,2,3,4-tetrahydro-carbazol-9-yl)thiobenzamide]
500 to 5000	C=CCNc1cc(-n2c3c(c4ccccc42)C(=O)CCC3)ccc1C(N)=O [Compound 20, 2-Allylamino-4-(4-oxo-1,2,3,4-tetrahydro-carbazol-9-yl)-benzamide]
5000 to 50000	NC(=O)c1ccc(C(F)(F)F)c(-n2c3c(c4ccccc42)C(=O)CCC3)c1 [Compound 14, 3-(4-Oxo-1,2,3,4-tetrahydro-carbazol-9-yl)-4-trifluoromethyl-benzamide]

tested on: cell cycle progression in M-phase; assay: Analysis of cell cycle status: M-phase block (phospho-Histone 3 serine 10, ArrayScan); type: cell-based; details: 5 hours incubation; vs 500 nM vinblastine (100% M-phase block) and DMSO (0%); read-out: M-phase block activities (IC50 range)
Description: Cells are seeded onto 96-well Packard View plates and incubated overnight. Test compounds are added to individual wells the following day at 10× concentrations and the plates returned to the incubator.
For identification of compounds that blocked cell cycle progression in M-phase, cells are incubated with compounds for 5 hours. After incubation, the cell growth media is removed and the cell monolayers are fixed with 3.7% formaldehyde, followed by treatment with 0.1% Triton X-100, and probed with a monoclonal phospho-specific Histone 3 serine 10 antibody. Bound primary antibody is detected with a FITC or TRITC conjugated secondary antibody. The cellular DNA is stained using Hoechst dye. Fixed cells are visualized using an ArrayScan 4.5 HCS plate reader. Cells positive for antibody binding are identified and quantified using the Target Activation Algorithm. IC50 Data from test compounds is generated by comparing test compound activity to the percentage of cells in M-phase detected in 500 nM vinblastine treated cells (100% M-phase block), and the percentage of M-phase cells detected in the DMSO control treated cells (0% M-phase block).

SMILES	IC50 [nM]
COCCNc1cc(-n2cc(C(C)=O)c3ccccc32)ccc1C(N)=O [Compound 35, 4-(3-Acetyl-indol-1-yl)-2-(2-methoxy-ethylamino)-benzamide]	500 to 5000
CC(=O)c1cn(-c2ccc(C(N)=O)cc2Cl)c2cc(Cl)ccc12 [Compound 44, 4-(3-Acetyl-6-chloro-indol-1-yl)-3-chloro-benzamide]	< 500
CC(=O)c1cn(-c2ccc(NC(N)=O)cc2Cl)c2ccc(Cl)cc12 [Compound 17, [4-(3-Acetyl-5-chloro-indol-1-yl)-3-chloro-phenyl]-urea]	500 to 5000
CC(=O)c1cn(-c2ccc(N)cc2Cl)c2cc(Cl)ccc12 [Compound 18, 1-[1-(4-Amino-2-chloro-phenyl)-6-chloro-1H-indol-3-yl]-ethanone]	500 to 5000
CC(=O)c1cn(-c2ccc(N)cc2Br)c2ccccc12 [Compound 37, 1-[1-(4-Amino-2-bromo-phenyl)-1H-indol-3-yl]-ethanone]	5000 to 50000
COc1cc(-n2cc(C(C)=O)c3ccccc32)ccc1C(N)=O [Compound 43, 4-(3-Acetyl-indol-1-yl)-2-methoxy-benzamide]	< 500

Continued, values first:

IC50 [nM]	SMILES
500 to 5000	C=CCNc1ccc(-n2c3c(c4ccccc42)C(=O)CCC3)c(C(F)(F)F)c1 [Compound 38, 9-(4-Allylamino-2-trifluoromethyl-phenyl)-1,2,3,9-tetrahydro-carbazol-4-one]
< 500	NC(=O)Nc1ccc(-n2c3c(c4cc(Cl)ccc42)C(=O)CCC3)c(Cl)c1 [Compound 41, [3-Chloro-4-(6-chloro-4-oxo-1,2,3,4-tetrahydro-carbazol-9-yl)-phenyl]-urea]
< 500	CC(=O)NC(=O)Nc1ccc(-n2c3c(c4ccccc42)C(=O)CCC3)c(Cl)c1 [Compound 40, 1-Acetyl-3-[3-chloro-4-(4-oxo-1,2,3,4-tetrahydro-carbazol-9-yl)-phenyl]-urea]
< 500	NC(=O)c1ccc(-n2c3c(c4ccccc42)C(=O)CCC3)c(C(F)(F)F)c1 [Compound 29, 4-(4-Oxo-1,2,3,4-tetrahydro-carbazol-9-yl)-3-trifluoromethyl-benzamide]
